Results: publication PMC6367750 (Future Medicinal Chemistry, 2018)
Like-named read-outs stand apart in the source and are kept apart here.

Assays:
MV4–11 [1] = settings: cited from earlier work
Molm13 = settings: cited from earlier work
FLT3-ITD [2] = biological target: T1, FLT3-ITD (Homo sapiens, UniProt P36888, ITD); assay: FLT3-ITD kinase inhibition, ADP-Glo kinase assay; format: biochemical; settings: read-out: %FLT3 inhibition FLT3-ITD
T1 sequence (P36888 564-993): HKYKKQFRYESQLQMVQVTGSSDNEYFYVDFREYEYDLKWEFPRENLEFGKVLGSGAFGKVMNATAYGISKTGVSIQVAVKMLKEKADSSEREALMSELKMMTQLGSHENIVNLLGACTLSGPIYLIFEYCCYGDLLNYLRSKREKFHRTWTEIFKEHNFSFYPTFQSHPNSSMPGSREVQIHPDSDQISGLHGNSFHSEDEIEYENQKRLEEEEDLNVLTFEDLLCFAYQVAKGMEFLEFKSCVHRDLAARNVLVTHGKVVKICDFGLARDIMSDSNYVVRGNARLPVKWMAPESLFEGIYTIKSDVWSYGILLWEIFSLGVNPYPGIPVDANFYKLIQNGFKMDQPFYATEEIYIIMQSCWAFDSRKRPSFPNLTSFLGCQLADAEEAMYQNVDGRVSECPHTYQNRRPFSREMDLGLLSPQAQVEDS

MV4–11 [3] = assay: Antiproliferative activity, CellTiter-Blue; format: cell-based; settings: for AML cell growth inhibition: SAR discussion of Table 1
Molm14 = assay: Antiproliferative activity, CellTiter-Blue; format: cell-based
[4] = system: Molm13-res (FLT3 (ITD, D835Y)); assay: Antiproliferative activity, CellTiter-Blue; format: cell-based; settings: 72 h
FLT3-ITD [5] = biological target: T2, FLT3-ITD (Homo sapiens, UniProt P36888); assay: FLT3-ITD kinase inhibition, ADP-Glo kinase assay; format: biochemical; settings: SAR discussion of Table 1
T2 sequence (P36888 564-993): T1 sequence (P36888 564-993)

ABL1-phosphorylated = ABL1-phosphorylated (Homo sapiens, UniProt P00519); settings: read-out: Kd ABL1-phosphorylated; KdELECT; ref Zimmerman et al. [28]; cited from earlier work
ABL1-nonphosphorylated = ABL1-nonphosphorylated (Homo sapiens, UniProt P00519); settings: read-out: Kd ABL1-nonphosphorylated; KdELECT; ref Zimmerman et al. [28]; cited from earlier work
FLT3 D835Y = settings: read-out: IC50 FLT3 D835Y; cited from earlier work
[6] = system: K562, NOMO-1, HL60 and MOLT4; assay: Antiproliferative activity, non-FLT3-driven leukemia cell lines; format: cell-based; settings: 72 h, read-out: IC50 range over non-FLT3-driven leukemia cell lines
FLT3 = biological target: T3, FLT3 (Homo sapiens, UniProt P36888); assay: DiscoverX ScanEdge kinase profiling; format: binding; settings: read-out: percent inhibition FLT3
T3 sequence (P36888 27-993): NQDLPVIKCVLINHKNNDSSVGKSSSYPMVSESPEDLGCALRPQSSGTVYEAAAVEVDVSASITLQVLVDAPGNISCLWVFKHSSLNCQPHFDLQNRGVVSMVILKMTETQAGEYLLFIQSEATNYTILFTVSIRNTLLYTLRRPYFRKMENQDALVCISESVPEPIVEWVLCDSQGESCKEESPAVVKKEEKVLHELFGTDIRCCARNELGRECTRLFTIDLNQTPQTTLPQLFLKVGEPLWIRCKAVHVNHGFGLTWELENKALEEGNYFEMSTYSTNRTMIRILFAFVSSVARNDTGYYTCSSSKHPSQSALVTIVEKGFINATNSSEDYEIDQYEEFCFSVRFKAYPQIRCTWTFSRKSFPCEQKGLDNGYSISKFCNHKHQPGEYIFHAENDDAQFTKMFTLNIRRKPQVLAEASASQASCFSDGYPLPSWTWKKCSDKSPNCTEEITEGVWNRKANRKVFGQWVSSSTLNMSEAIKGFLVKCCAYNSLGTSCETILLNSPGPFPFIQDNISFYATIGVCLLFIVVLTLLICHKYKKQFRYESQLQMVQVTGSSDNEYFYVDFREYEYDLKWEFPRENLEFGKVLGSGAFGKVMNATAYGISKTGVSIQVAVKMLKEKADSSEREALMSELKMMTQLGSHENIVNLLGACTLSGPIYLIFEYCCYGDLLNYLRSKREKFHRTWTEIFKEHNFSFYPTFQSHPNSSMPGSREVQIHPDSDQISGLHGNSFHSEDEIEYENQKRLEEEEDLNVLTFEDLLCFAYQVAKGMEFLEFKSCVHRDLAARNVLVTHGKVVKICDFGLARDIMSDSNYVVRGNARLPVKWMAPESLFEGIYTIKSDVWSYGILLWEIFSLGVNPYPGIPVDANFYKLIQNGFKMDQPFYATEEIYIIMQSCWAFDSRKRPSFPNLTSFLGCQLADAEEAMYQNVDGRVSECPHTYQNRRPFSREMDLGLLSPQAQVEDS

JAK2 = JAK2 (Homo sapiens, UniProt O60674); assay: DiscoverX ScanEdge kinase profiling; format: binding; settings: read-out: percent inhibition JAK2
JAK3 = JAK3 (Homo sapiens, UniProt P52333); assay: DiscoverX ScanEdge kinase profiling; format: binding; settings: read-out: percent inhibition JAK3
MKNK2 = MKNK2 (Homo sapiens, UniProt Q9HBH9); assay: DiscoverX ScanEdge kinase profiling; format: binding; settings: read-out: percent inhibition MKNK2
phospho-STAT5 = assay: Western blot of phospho-STAT5 in MV4–11 cells; format: cell-based
TOPK = assay: Western blot of TOPK protein in MV4–11 cells; format: cell-based
TOPK mRNA = assay: Real-time PCR of TOPK mRNA in MV4–11 cells; format: cell-based; settings: 24 h
MV4–11 [7] = assay: Cell cycle analysis; format: cell-based; settings: MV4–11, 24 h
c-Kit = settings: read-out: IC50 c-Kit; cited from earlier work
[8] = Homo sapiens, MV4-11, 72 h, read-out: IC50 MV4–11, 72 h
[9] = Homo sapiens, MOLM-14, 72 h, read-out: IC50 Molm14, 72 h
[10] = read-out: IC50 Molm13-res, 72 h

MKNK2, sequence (Q9HBH9 whole entry): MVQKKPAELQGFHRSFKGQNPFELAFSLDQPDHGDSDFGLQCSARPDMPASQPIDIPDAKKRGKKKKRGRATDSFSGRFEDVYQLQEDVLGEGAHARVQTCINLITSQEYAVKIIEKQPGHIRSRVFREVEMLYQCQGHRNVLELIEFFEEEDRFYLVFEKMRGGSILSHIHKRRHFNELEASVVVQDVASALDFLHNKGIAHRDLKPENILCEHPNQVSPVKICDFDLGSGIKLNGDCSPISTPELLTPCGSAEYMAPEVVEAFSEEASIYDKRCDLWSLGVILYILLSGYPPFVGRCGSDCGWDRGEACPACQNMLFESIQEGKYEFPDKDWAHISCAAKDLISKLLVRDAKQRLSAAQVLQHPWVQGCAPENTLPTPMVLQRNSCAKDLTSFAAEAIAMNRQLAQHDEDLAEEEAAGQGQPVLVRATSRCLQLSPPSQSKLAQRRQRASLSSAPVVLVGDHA
JAK3, sequence (P52333 813-1124 limits assumed): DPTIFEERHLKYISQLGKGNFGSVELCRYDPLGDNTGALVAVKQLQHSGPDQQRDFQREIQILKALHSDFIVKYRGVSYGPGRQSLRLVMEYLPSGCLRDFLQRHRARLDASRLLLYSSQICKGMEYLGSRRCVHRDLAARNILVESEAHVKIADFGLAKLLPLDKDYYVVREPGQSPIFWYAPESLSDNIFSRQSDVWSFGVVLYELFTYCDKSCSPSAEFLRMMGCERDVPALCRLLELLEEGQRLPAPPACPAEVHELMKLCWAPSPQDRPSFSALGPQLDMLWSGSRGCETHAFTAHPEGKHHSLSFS
ABL1-phosphorylated, sequence (P00519 whole entry): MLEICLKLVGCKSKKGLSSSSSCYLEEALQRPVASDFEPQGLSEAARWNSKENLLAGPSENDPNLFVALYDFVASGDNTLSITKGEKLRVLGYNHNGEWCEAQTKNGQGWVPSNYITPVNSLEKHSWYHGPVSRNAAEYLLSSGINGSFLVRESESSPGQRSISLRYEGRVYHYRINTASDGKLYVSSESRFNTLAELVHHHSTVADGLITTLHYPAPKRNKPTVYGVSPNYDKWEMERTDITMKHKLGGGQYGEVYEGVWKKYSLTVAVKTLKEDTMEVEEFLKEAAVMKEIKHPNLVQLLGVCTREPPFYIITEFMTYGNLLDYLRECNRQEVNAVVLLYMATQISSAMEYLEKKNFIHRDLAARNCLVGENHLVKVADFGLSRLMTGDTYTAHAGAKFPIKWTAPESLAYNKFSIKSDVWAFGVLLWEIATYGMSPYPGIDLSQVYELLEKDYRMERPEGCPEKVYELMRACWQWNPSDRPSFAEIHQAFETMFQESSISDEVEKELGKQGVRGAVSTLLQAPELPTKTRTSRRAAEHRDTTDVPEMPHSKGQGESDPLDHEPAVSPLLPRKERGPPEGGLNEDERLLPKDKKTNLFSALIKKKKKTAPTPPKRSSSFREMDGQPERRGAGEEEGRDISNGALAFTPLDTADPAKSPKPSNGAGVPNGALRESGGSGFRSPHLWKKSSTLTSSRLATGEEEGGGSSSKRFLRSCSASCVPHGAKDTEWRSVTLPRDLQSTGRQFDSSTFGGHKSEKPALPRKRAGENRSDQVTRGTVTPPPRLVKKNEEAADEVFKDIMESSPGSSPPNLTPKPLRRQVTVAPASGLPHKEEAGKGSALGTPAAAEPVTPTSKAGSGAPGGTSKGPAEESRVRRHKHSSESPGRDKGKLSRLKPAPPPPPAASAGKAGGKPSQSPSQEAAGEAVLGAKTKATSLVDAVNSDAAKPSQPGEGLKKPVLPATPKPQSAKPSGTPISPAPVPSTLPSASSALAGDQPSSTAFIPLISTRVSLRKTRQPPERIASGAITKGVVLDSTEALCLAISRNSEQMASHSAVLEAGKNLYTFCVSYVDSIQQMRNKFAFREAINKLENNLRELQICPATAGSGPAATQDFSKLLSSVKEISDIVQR
ABL1-nonphosphorylated, sequence (P00519 whole entry): as above
JAK2, sequence (O60674 840-1132 limits assumed): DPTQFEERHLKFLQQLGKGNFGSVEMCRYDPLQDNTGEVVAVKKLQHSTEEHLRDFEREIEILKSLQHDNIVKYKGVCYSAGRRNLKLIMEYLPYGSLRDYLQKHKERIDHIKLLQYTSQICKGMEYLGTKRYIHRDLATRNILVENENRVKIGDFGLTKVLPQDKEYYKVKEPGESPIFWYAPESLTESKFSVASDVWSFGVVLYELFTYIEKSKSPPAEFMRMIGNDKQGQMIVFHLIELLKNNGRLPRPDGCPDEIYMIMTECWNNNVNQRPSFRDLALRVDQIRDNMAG

Row | SMILES | inhibition at 0.1 µM (FLT3-ITD [2]) | IC50 (MV4–11 [3]; [8]) | AML cell growth inhibition (MV4–11 [3]) | further results
1 | Nc1ncc(-c2ccncc2)nc1Nc1ccc2[nH]ccc2c1 [AKN-028] | – | – | – | effect on cell cycle (MV4–11 [1]): induce arrest in the G0/1 phase
2 | C[C@H]1CC[C@H](n2c3cnccc3c3cnc(Nc4ccc5c(n4)CCN(C(=O)CO)C5)nc32)CC1 [AMG 925] | – | – | – | effect on cell cycle (Molm13): induce arrest in the G0/1 phase
3 | NC1CCc2c(c(-c3c[nH]nc3C(F)(F)F)nc3ccc4[nH]ncc4c23)C1 (stereo not drawn) [Compound 7] | 71% | 0.133 µM | less active | –
4 | Cc1n[nH]cc1-c1nc2ccc3[nH]ncc3c2c2c1CCCC2 [Compound 9] | 54% | 0.0615 µM | potent inhibitors of AML proliferation | IC50 (Molm14; [9]): 0.0641 µM; IC50 [4, 10]: 0.0867 µM
5 | c1[nH]nnc1-c1nc2ccc3[nH]ncc3c2c2c1CCCC2 [Compound 12] | 56% | 0.154 µM | not as active as HSD1169 | –
6 | FC(F)(F)c1cc(-c2nc3ccc4[nH]ncc4c3c3c2CCCC3)n[nH]1 [Compound 13] | 5% | > 5 µM | inactive even at 1000 nM | –
7 | c1ccc(-c2n[nH]cc2-c2nc3ccc4[nH]ncc4c3c3c2CCCC3)cc1 [Compound 14] | 26% | 1.45 µM | – | –
8 | c1cncc(-c2n[nH]cc2-c2nc3ccc4[nH]ncc4c3c3c2CCCC3)c1 [Compound 15] | 6% | 1.3 µM | inactive compounds | –
9 | c1cc(-c2n[nH]cc2-c2nc3ccc4[nH]ncc4c3c3c2CCCC3)cs1 [Compound 17] | 19% | 0.772 µM | inactive compounds | –
10 | FC(F)(F)c1n[nH]cc1-c1nc2ccc3[nH]ccc3c2c2c1CCCC2 [Compound 19] | 8% | 0.898 µM | did not inhibit FLT3 enzymatic activity or AML cell growth | FLT3 enzymatic inhibition (FLT3-ITD [5]): did not inhibit FLT3 enzymatic activity
11 | OCCn1cc(-c2nc3ccc4[nH]ncc4c3c3c2CCCC3)cn1 [Compound 20] | 27% | 1.39 µM | inactive compounds | –
12 | CC1(COc2ccc3c(c2)ncn3-c2ccc3cccc(N4CCC(N)CC4)c3n2)COC1 [Crenolanib, crenolanib] | – | – | – | Kd (ABL1-phosphorylated): 0.43 µM; Kd (ABL1-nonphosphorylated): 0.14 µM; IC50 (FLT3 D835Y): 0.0069 µM
13 | FC(F)(F)c1n[nH]cc1-c1nc2ccc3[nH]ncc3c2c2c1CCCC2 [HSD1169] | 80% | 0.005 µM | potent inhibitors of AML proliferation | IC50 (MV4–11 [3]; read-out: IC50 MV4–11, 72 h, listed as 4 (HSD1169)): 0.0054 µM; IC50 (Molm14; [9]): 0.005 µM; IC50 (Molm14; read-out: IC50 Molm14, 72 h, listed as 4 (HSD1169)): 0.0049 µM; IC50 [4, 10]: 0.005 µM; IC50 ([4]; read-out: IC50 Molm13-res, listed as 4 (HSD1169)): 0.0051 µM; IC50 [6]: 0.62 to 1.85 µM; inhibition at 0.5 µM (FLT3): > 90%; inhibition at 0.5 µM (JAK2): > 90%; inhibition at 0.5 µM (JAK3): > 90%; inhibition at 0.5 µM (MKNK2): > 90%; phosphorylation of STAT5 (western blot, words) (phospho-STAT5): inhibited the phosphorylation of STAT5; TOPK protein level (western blot, words) (TOPK): reduction of TOPK protein in a dose-dependent manner; TOPK mRNA level (TOPK mRNA): downregulation of TOPK mRNA; effect on cell cycle (MV4–11 [7]): dose-dependent increase in the percentage of cells in the G0/1 phase
14 | CO[C@@H]1[C@H](N(C)C(=O)c2ccccc2)C[C@H]2O[C@]1(C)n1c3ccccc3c3c4c(c5c6ccccc6n2c5c31)C(=O)NC4 [PKC412 (midostaurin), midostaurin] | – | – | – | effect on cell cycle (MV4–11 [1]): did not affect cell cycle pattern; effect on cell cycle (Molm13): did not affect cell cycle pattern
15 | CCc1nc(C(N)=O)c(Nc2ccc(N3CCC(N4CCN(C)CC4)CC3)c(OC)c2)nc1NC1CCOCC1 [gilteritinib] | – | – | – | IC50 (c-Kit): 0.23 µM
